Data: paper PMC8355692, “Antimelanoma activities of chimeric thiazole–androstenone derivatives” (Royal Society Open Science, 2021)

What was measured:
[1] = Solubility in the growth media; type: physicochemical; settings: growth media of the HFF-1 test
SK-MEL-28 = assay: NCI DTP 60 cell line five-concentration test, melanoma panel; type: cell-based; settings: for CC50: SK-MEL-28, read-out: LC50 (50% lethal concentration)
Procedure: (§1) In our effort to develop new methodologies to synthesize bioactive compounds [11–14], we have synthesized a number of thiazole and thiazolo-androstenone derivatives. We submitted 50 of the synthesized thiazole–androstenone derivatives to the National Cancer Institute (NCI) Development Therapeutics Program (DTP) to test against 60 cancer cell lines (https://dtp.cancer.gov/). These compounds were tested for cytotoxicity at a single dose of 10 µM. […] Eight of these chimeric compounds (figure 2) were selected for further testing at five different concentrations to determine 50% growth inhibition (GI50), total growth inhibition (TGI) and 50% lethal concentration (LC50) values. […] Overall, amino-thiazole derivatives (table 1, 1–7) were more toxic to melanoma cell lines than phenyl thiazole derivatives (8). Fluoro and oxy (hydroxy and methoxy) derivatives were the potent growth inhibitors of the tested cancer cell lines. LOX IMVI cell line was the most susceptible among all the melanoma cell lines used against the tested compounds (table 1). […] Phenyl ethyl derivative (1) inhibited the growth of all the cell lines except SK-MEL-2. […] 2,4-Dimethyl substituted derivative (7) is a potent growth inhibitor of all the tested cell lines of the melanoma panel.

MDA-MB-435 = assay: as above; type: cell-based; settings: for CC50 / GI50: Homo sapiens; for CC50: MDA-MB-435, read-out: LC50 (50% lethal concentration); for GI50 / TGI (total growth inhibition): MDA-MB-435 melanoma cell line
Procedure: as §1

UACC-257 = assay: as above; type: cell-based; settings: for CC50 / GI50: Homo sapiens; for CC50: UACC-257, read-out: LC50 (50% lethal concentration); for GI50 / TGI (total growth inhibition): UACC-257 melanoma cell line
Procedure: as §1

SK-MEL-2 = assay: as above; type: cell-based; settings: for LC50 (50% lethal concentration) / GI50: Homo sapiens; for LC50 (50% lethal concentration): SK-MEL-2, read-out: LC50 (50% lethal concentration); for GI50 / TGI (total growth inhibition): SK-MEL-2 melanoma cell line
Procedure: as §1

UACC-62 = assay: as above; type: cell-based; settings: for GI50 / LC50 (50% lethal concentration): Homo sapiens; for GI50: UACC-62, UACC-62 melanoma cell line; for LC50 (50% lethal concentration): UACC-62, read-out: LC50 (50% lethal concentration); for TGI (total growth inhibition): UACC-62 melanoma cell line
Procedure: as §1

M14 = assay: as above; type: cell-based; settings: for GI50 / CC50: Homo sapiens; for GI50: M14, M14 melanoma cell line; for CC50: M14, read-out: LC50 (50% lethal concentration); for TGI (total growth inhibition): M14 melanoma cell line
Procedure: as §1

MALME-3M = assay: as above; type: cell-based; settings: for CC50 / GI50: Homo sapiens; for CC50: Malme-3M, read-out: LC50 (50% lethal concentration); for GI50 / TGI (total growth inhibition): MALME-3M melanoma cell line
Procedure: as §1

LOX IMVI = assay: as above; type: cell-based; settings: for LC50 (50% lethal concentration) / GI50: Homo sapiens; for LC50 (50% lethal concentration): LOX IMVI, read-out: LC50 (50% lethal concentration); for GI50 / TGI (total growth inhibition): LOX IMVI melanoma cell line
Procedure: as §1

SK-MEL-5 = assay: as above; type: cell-based; settings: for CC50 / GI50: Homo sapiens; for CC50: SK-MEL-5, read-out: LC50 (50% lethal concentration); for GI50 / TGI (total growth inhibition): SK-MEL-5 melanoma cell line
Procedure: as §1

endonuclease G (EndoG) = assay: EndoG immunocytochemistry combined with TUNEL (caspase-independent apoptosis); type: cell-based; settings: melanoma cells, 5 or 10 µM, 24 h
Description: (§2) The elevation was dose-dependent.
(§3) Figure 4. […] (c) Representative images. […] Mean ± s.e.m., n = 4 per group.
(§4) Figure 5. […] (a) Representative images of TUNEL colocalized or not colocalized with each of the three protein markers used in this study. […] Mean ± s.e.m., n = 4 per group.
(§5) Thus, to determine the mechanism of action of our compounds on melanoma cells in vitro, we applied the fluorescent TUNEL assay combined with quantitative ICC for three markers: HO1 for oxidative cell injury, CAD for caspase-mediated apoptosis and EndoG for caspase-independent apoptosis. […] However, none of the compounds or dacarbazine induced apoptotic endonucleases. This is not surprising because apoptotic endonucleases are commonly present in the cell in sufficient amounts to be able to destroy DNA upon cell death without induction (which most likely would not be possible in a dead cell).

HFF-1 cell line = assay: Toxicity for normal human foreskin fibroblast cell line; type: cell-based; settings: normal human foreskin fibroblast HFF-1
Description: To assess the potential use of lead compounds as anti-melanoma agents, we tested their toxicity for the normal human foreskin fibroblast (HFF-1) cell line taking into consideration that MM is usually surrounded by the cells of this kind. The effects of some of the potent compounds on this cell line were very encouraging (table 4).

[2] = tested on: caspase-activated DNase (CAD); assay: CAD immunocytochemistry combined with TUNEL (caspase-mediated apoptosis); type: cell-based; settings: melanoma cells, 5 or 10 µM, 24 h
Description: as §2, §3, §4, §5

heme oxygenase-1 (HO1) = assay: HO1 immunocytochemistry combined with TUNEL (oxidative injury); type: cell-based; settings: melanoma cells, 5 or 10 µM, 24 h
Description: as §2, §3, §4, §5

SK-MEL-28 cell line = assay: Annexin V flow cytometry apoptosis assay; type: cell-based
Procedure: After determining the selective toxicity of potent molecules, we determined their mode of action against the melanoma cell line. Apoptosis or programmed cell death is a physiological process to remove unwanted or damaged mammalian cells. We detected apoptosis mode of cell death by our potent compounds using flow cytometry-based Annexin V assay. Compound 3 caused 23% apoptosis at 6 µM and 54% apoptosis at 12 µM (figure 3). 3-Fluorophenyl derivative (5) was a very potent apoptosis-inducing agent that caused 100% cell death at 12 µM concentration. Dacarbazine, the positive control, caused 22% apoptotic cell death at 200 µM concentration.
Figure 3. Apoptosis measurements using Annexin V flow cytometry assay of compounds 3 and 5 against SK-MEL-28 cell line at 6 and 12 µM concentrations. DMSO and dacarbazine (Daca) are negative and positive controls, respectively. Mean ± s.e.m., n = 3 per group.

[3] = Homo sapiens, SK-MEL-28, SK-MEL-28 melanoma cell line

SMILES | GI50 (SK-MEL-28; [3]) | CC50 (SK-MEL-28; Homo sapiens) | TGI (total growth inhibition) (SK-MEL-28; SK-MEL-28 melanoma cell line) | CC50 (MDA-MB-435) | GI50 (MDA-MB-435) | TGI (total growth inhibition) (MDA-MB-435) | CC50 (UACC-257) | GI50 (UACC-257) | TGI (total growth inhibition) (UACC-257) | LC50 (50% lethal concentration) (SK-MEL-2) | GI50 (SK-MEL-2) | TGI (total growth inhibition) (SK-MEL-2) | GI50 (UACC-62) | LC50 (50% lethal concentration) (UACC-62) | TGI (total growth inhibition) (UACC-62) | GI50 (M14) | CC50 (M14) | TGI (total growth inhibition) (M14) | CC50 (MALME-3M) | GI50 (MALME-3M) | further results
C[C@]12CCc3nc(-c4cccc(F)c4)sc3C1=CC[C@@H]1[C@@H]2CC[C@]2(C)C(=O)CC[C@@H]12 [Compound 8] | 1.53 µM | > 100 µM | 4.07 µM | > 100 µM | 2.97 µM | >100 µM | > 100 µM | 6.12 µM | >100 µM | > 100 µM | 2.74 µM | 10.7 µM | 1.9 µM | 37.3 µM | 5.70 µM | 6.62 µM | > 100 µM | >100 µM | 9.48 µM | 1.8 µM | solubility in the growth media [1]: low solubility; TGI (total growth inhibition) (MALME-3M): 4.13 µM; LC50 (50% lethal concentration) (LOX IMVI): 6.47 µM; GI50 (LOX IMVI): 1.74 µM; TGI (total growth inhibition) (LOX IMVI): 3.36 µM; CC50 (SK-MEL-5): 65.1 µM; GI50 (SK-MEL-5): 4.05 µM; TGI (total growth inhibition) (SK-MEL-5): 16.9 µM
C[C@]12CCc3nc(Nc4ccc(OC(F)(F)F)cc4)sc3C1=CC[C@@H]1[C@@H]2CC[C@]2(C)C(=O)CC[C@@H]12 [Compound 3] | ≥ 1.32 µM | 49.2 µM | 7.98 µM | 44.2 µM | 2.72 µM | 10.1 µM | > 100 µM | 4.89 µM | 28.8 µM | 55.6 µM | 3 µM | 11.6 µM | 3.03 µM | > 100 µM | 10.3 µM | 3.29 µM | 46.6 µM | 8.72 µM | 84.5 µM | 3.45 µM | EndoG mean intensity (endonuclease G (EndoG)): No significant induction; toxicity against HFF1 cells (in words) (HFF-1 cell line): did not show any notable toxicity; IC50 (HFF-1 cell line; read-out: IC50 against HFF1 cell line): > 100 µM; GI50 (SK-MEL-28; SK-MEL-28 melanoma cell line): 1.88 µM; TGI (total growth inhibition) (MALME-3M): 16.8 µM; LC50 (50% lethal concentration) (LOX IMVI): 5.82 µM; GI50 (LOX IMVI): 1.74 µM; TGI (total growth inhibition) (LOX IMVI): 3.18 µM; CC50 (SK-MEL-5): 41.4 µM; GI50 (SK-MEL-5): 2.62 µM; TGI (total growth inhibition) (SK-MEL-5): 7.41 µM; CAD mean intensity [2]: No significant induction; colocalization of CAD with TUNEL (caspase-mediated apoptosis) [2]: induced the colocalization of CAD with TUNEL; HO1 staining in TUNEL-positive cells (oxidative injury) (heme oxygenase-1 (HO1)): strongly induced oxidative injury; apoptosis (SK-MEL-28 cell line; SK-MEL-28, 6 µM): 23%; apoptosis (SK-MEL-28 cell line; SK-MEL-28, 12 µM): 54%
C[C@]12CCc3nc(NCCc4ccccc4)sc3C1=CC[C@@H]1[C@@H]2CC[C@]2(C)C(=O)CC[C@@H]12 [Compound 1] | 3.37 µM | > 100 µM | 18.9 µM | > 100 µM | 3.01 µM | >100 µM | > 100 µM | 4.92 µM | 79.8 µM | > 100 µM | 17 µM | >100 µM | 2.67 µM | > 100 µM | 10.6 µM | 3.63 µM | > 100 µM | >100 µM | > 100 µM | 2.18 µM | solubility in the growth media [1]: low solubility; TGI (total growth inhibition) (MALME-3M): 6.82 µM; LC50 (50% lethal concentration) (LOX IMVI): 5.91 µM; GI50 (LOX IMVI): 1.7 µM; TGI (total growth inhibition) (LOX IMVI): 3.17 µM; CC50 (SK-MEL-5): > 100 µM; GI50 (SK-MEL-5): 4.57 µM; TGI (total growth inhibition) (SK-MEL-5): 52.7 µM
